# According to US7750019B2, “Pyrimidine compound having benzyl(pyridylmethyl)amine structure and medicament comprising the same” (Kowa Company, Ltd., priority 2006, dated 2010):
# Structures can show the parent of a compound that is named as a salt.
# How the values were obtained:
# [1] = target: T1, CETP (Homo sapiens, UniProt P11597); assay: CETP inhibitory action in human plasma (Roar Biomedical CETP Activity kit, fluorescence); format: biochemical; details: human plasma incubated with compound at 37° C. for 4 hours; read-out: IC50 (concentration inhibiting the CETP activity by 50%)
# T1 construct: The CETP activity in this plasma was measured with Cholesteryl Ester Transfer Protein Activity kit; from tissue; host or cells: human plasma
# T1 sequence (P11597 18-493): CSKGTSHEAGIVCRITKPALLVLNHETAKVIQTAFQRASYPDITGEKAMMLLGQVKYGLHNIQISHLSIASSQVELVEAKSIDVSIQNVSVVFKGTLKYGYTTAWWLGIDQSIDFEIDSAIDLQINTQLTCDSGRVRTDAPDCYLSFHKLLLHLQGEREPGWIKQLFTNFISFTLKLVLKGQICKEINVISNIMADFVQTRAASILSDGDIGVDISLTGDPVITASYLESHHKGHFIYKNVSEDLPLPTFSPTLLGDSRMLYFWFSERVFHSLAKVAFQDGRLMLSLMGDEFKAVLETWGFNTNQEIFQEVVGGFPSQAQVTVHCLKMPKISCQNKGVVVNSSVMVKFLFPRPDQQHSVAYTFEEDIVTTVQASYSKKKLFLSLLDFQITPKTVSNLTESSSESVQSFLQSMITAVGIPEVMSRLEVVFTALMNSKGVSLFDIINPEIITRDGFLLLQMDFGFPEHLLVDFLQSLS
# Method: A solution obtained by dissolving an exemplary compound or a comparative compound in polyethyleneglycol/N-methyl-2-pyrrolidone (vol/vol=1/1) was added to human plasma, and the mixture was incubated in an incubator at 37° C. for 4 hours. The CETP activity in this plasma was measured with Cholesteryl Ester Transfer Protein Activity kit (Roar Biomedical, catalog No.: RB-CETP). Specifically, to each well of a 96-well plate, 95 μL of a buffer (10 mM Tris, 150 mM NaCl, 2 mM EDTA, pH 7.4), 2 μL of Donor particle and 2 μL of Acceptor particle were added, 1 μL of the human plasma after the incubation was added to the mixture, and the mixture was incubated in an incubator at 37° C. for 2 hours. After completion of the incubation, fluorescence intensity (FLU) was measured with a fluorescence plate reader (excitation wavelength: 465 nm, emission wavelength: 535 nm). In accordance with the following equation 1, the CETP activity (% of control) was obtained for the compounds of the examples and the comparative compounds for two or more concentrations. CETP activity (% of control)=(Sample FLU−Blank FLU)×100/(Control FLU−Blank FLU) (Equation 1) In the equation, the terms have the following meanings: Blank: No addition of plasma Control: Plasma not added with solution of compound Sample: Plasma added with solution of compound
# A value obtained by subtracting the value of the CETP activity from 100 was defined as the CETP inhibitory rate of each exemplary compound and comparative compound, and a concentration inhibiting the CETP activity by 50% (IC50) was calculated for each exemplary compound and comparative compound from the values of the CETP inhibitory rate at two or more concentrations. As the comparative compounds, the following compounds were used, which are compounds having a benzyl(heterocyclylmethyl)amine structure described in Examples 52, 66 and 79 of Patent document 9 (International Patent Publication WO2006/073973).
# [2] = test system: CETP; assay: CETP inhibitory activity in blood of hamster (single oral administration); format: in vivo; details: 30 mg/kg single oral dose in olive oil, blood collected 2 hours after administration, n=3, control 33.7 ± 2.3
# Method: 1: Labeling of Donor Lipoprotein (HDL3 Fraction) with ^3H-Cholesterol and Preparation of Acceptor Lipoprotein (LDL Fraction)
# The donor lipoprotein was prepared by adding KBr to plasma of healthy human subject (50 mL) to adjust the specific gravity (d) of the plasma to be 1.125, centrifuging the mixture at 100,000 rpm and 4° C. for 2.5 hours (Optima Max-E TLA-100.2 rotor, Beckman), and collecting the lower layer (HDL3 fraction, d>1.125). The resulting fraction was dialyzed against PBS (10 mM Na2HPO4, 10 mM NaH2PO4, 0.15 M NaCl, 1 mM EDTA-2Na, pH 7.4). Then, a 95% ethanol solution of 9.25 MBq 1, 2-3H(N)cholesterol (NEN™, Life Science Products, USA) was added to the sample with stirring, and the mixture was incubated at 37° C. for 18 hours. After the incubation, the mixture was added with KBr to adjust the specific gravity thereof to be 1.210, and centrifuged under the same conditions as mentioned above to obtain the upper layer (^3H-labeled HDL3 fraction, 1.125<d<1.210). The ^3H-labeled HDL3 was dialyzed against PBS, and used for the measurement of the CETP activity.
# The acceptor lipoprotein was prepared as follows. Plasma of healthy human subject (30 mL) was centrifuged under the same conditions as mentioned above, and the upper layer (chylomicron and VLDL fraction, d<1.006) was removed. The lower layer was added with KBr to adjust the specific gravity thereof to be 1.063, and centrifuged under the same conditions to obtain the upper layer (LDL fraction, 1.006<d<1.063). The LDL fraction was dialyzed against PBS and used for the measurement of the CETP activity.
# Each of the compounds of Examples 10 and 13 and the comparative compounds was dissolved in olive oil and orally administered once to the animals, and blood was collected from the abdominal portion of vena cava under pentobarbital anesthetization 2 hours after the administration. Further, as a control, olive oil in which any compound was not dissolved was administered, and blood was collected in a similar manner (n=3 for each).
# (§1) To 10 μL of the hamster plasma, 5 μL of ^3H-labeled HDL3 and 20 μL of LDL were added, and the final volume of the mixture was made […] with a TBS solution (10 mM Tris, 0.15 M NaCl, pH 7.4). The mixture was incubated at 37° C. for 18 hours, then added with 400 μL of the TBS solution containing 0.15 M MgCl2 and 0.3% dextran sulfate, stirred (10 sec×2) with VORTEX-2 (Scientific Industries Inc.), left for 30 minutes on ice, and centrifuged at 4° C. and 8,000 rpm for 10 minutes (MX-301, TOMY). The resulting centrifugation supernatant (^3H-labeled HDL3 fraction) in a volume of 300 μL was collected in a vial, and added with 3.6 mL of a scintillator (Aquazol-2, Packard), and the mixture was stirred. Then, radioactivity of ^3H was measured with a liquid scintillation counter (TRI-CARB 2700 TR, Packard). The CETP activity (%) was obtained in accordance with the following equation 2. CETP activity (%)=(Blank dpm−Sample dpm)×100/(Blank dpm) (Equation 2) In the equation, the terms have the following meanings: Blank dpm: Value of ^3H radioactivity of sample not added with plasma Sample dpm: Value of ^3H radioactivity of sample added with compound or control sample.
# [3] = test system: CETP; assay: CETP inhibitory activity in blood of hamster (repetitive oral administration for 7 days); format: in vivo; details: 100 mg/kg orally once a day for 7 days, blood collected 2 hours after final administration, n=5, control 43.5 ± 6.4
# Method: as §1, with “sample. […]” for “sample.”
Structure (SMILES),melting point [°C],IC50 [1] [nM],Average CETP activity ± standard deviation (%) [2] [%],Average CETP activity ± standard deviation (%) [3] [%]
"CCN(CC1CCCC1)c1ccc(OC)nc1CN(Cc1cc(C(F)(F)F)cc(C(F)(F)F)c1)c1ncc(OCCS(C)(=O)=O)cn1 (as salt: hydrochloride) [Example 13, 2-[N-[3,5-bis(trifluoromethyl)benzyl]-N-[3-(N-cyclopentylmethyl-N-ethyl)amino-6-methoxypyridin-2-yl]methyl]amino-5-(2-methylsulfonylethoxy)pyrimidine]",67 to 71,–,–,–
"CCN(CC1CCCC1)c1nc2ccccc2cc1CN(Cc1cc(C(F)(F)F)cc(C(F)(F)F)c1)c1nnn(C)n1 [Comparative Compound 1, reference compound]",–,1000,22.9 ± 3.3,–
"CCN(CC1CCCC1)c1nc2ccccc2cc1CN(Cc1cc(C(F)(F)F)cc(C(F)(F)F)c1)c1ncccn1 [Comparative Compound 2, reference compound]",–,20000,30.3 ± 4.2,–
"CCN(CC1CCCC1)c1nc(C)c(C)cc1CN(Cc1cc(C(F)(F)F)cc(C(F)(F)F)c1)c1nnn(C)n1 [Comparative Compound 3, reference compound]",–,1500,15.0 ± 4.0,–
"CCN(CC1CCCC1)c1ccc(OC)nc1CN(Cc1cc(C(F)(F)F)cc(C(F)(F)F)c1)c1ncc(OCC[S+](C)[O-])cn1 (stereo not drawn) [Example 12, 2-[N-[3,5-bis(trifluoromethyl)benzyl]-N-[3-(N-cyclopentylmethyl-N-ethyl)amino-6-methoxypyridin-2-yl]methyl]amino-5-(2-methylsulfinylethoxy)pyrimidine]",–,350,–,–
"CCN(CC1CCCC1)c1ccc(OC)nc1CN(Cc1cc(C#N)cc(C#N)c1)c1ncc(OCC[S+](C)[O-])cn1 (stereo not drawn) [Example 41, 2-[N-[3-(N-cyclopentylmethyl-N-ethyl)amino-6-methoxypyridin-2-yl]methyl-N-(3,5-dicyanobenzyl)]amino-5-(2-methylsulfinylethoxy)pyrimidine]",–,500,–,–

# Continued by falling IC50 [1], values first:
melting point [°C],IC50 [1] [nM],Structure (SMILES),Average CETP activity ± standard deviation (%) [2] [%],Average CETP activity ± standard deviation (%) [3] [%]
–,250,"CCN(CC1CCCC1)c1ccc(OC)nc1CN(Cc1cc(C(F)(F)F)cc(C(F)(F)F)c1)c1ncc(OCCS(C)(=O)=O)cn1 [Example 13, 2-[N-[3,5-bis(trifluoromethyl)benzyl]-N-[3-(N-cyclopentylmethyl-N-ethyl)amino-6-methoxypyridin-2-yl]methyl]amino-5-(2-methylsulfonylethoxy)pyrimidine]",8.5 ± 1.7,9.0 ± 1.7
–,250,"CCN(CC1CCCC1)c1ccc(OC)nc1CN(Cc1cc(C#N)cc(C#N)c1)c1ncc(OCCS(C)(=O)=O)cn1 [Example 42, 2-[N-[3-(N-cyclopentylmethyl-N-ethyl)amino-6-methoxypyridin-2-yl]methyl-N-(3,5-dicyanobenzyl)]amino-5-(2-methylsulfonylethoxy)pyrimidine]",–,–
–,90,"CCN(CC1CCCC1)c1ccc(OC)nc1CN(Cc1cc(C#N)cc(C(F)(F)F)c1)c1ncc(OCC[S+](C)[O-])cn1 (stereo not drawn) [Example 9, 2-[N-(3-cyano-5-trifluoromethylbenzyl)-N-[3-(N-cyclopentylmethyl-N-ethyl)amino-6-methoxypyridin-2-yl]methyl]amino-5-(2-methylsulfinylethoxy)pyrimidine]",–,–
97.2 to 98.2,35,"CCN(CC1CCCC1)c1ccc(OC)nc1CN(Cc1cc(C#N)cc(C(F)(F)F)c1)c1ncc(OCCS(C)(=O)=O)cn1 [Example 10, 2-[N-(3-cyano-5-trifluoromethylbenzyl)-N-[3-(N-cyclopentylmethyl-N-ethyl)amino-6-methoxypyridin-2-yl]methyl]amino-5-(2-methylsulfonylethoxy)pyrimidine]",2.6 ± 1.1,11.4 ± 6.0
